# “Also recorded” adds a separate entry of the source. Peptide text beside a SMILES is read from it. * marks the point of attachment. Cbz = O=C(OCc1ccccc1)*
# How the values were obtained:
# p105 to p50 processing = test: Proteasome dependent p105 to p50 processing in transfected COS cells (pulse-chase); format: cell-based, African green monkey; details: 50 μM, 1 h pretreatment, 2 hour chase
# Method: COS cells were plated onto 100 mm dishes, then, with DEAE-Destran, either mock transfected, or transfected with 3 μg of pcDNA plasmid containing the human p105 cDNA. Forty-eight hrs after transfection, cells were pretreated for 1 hour with 0.5% DMSO, 50 μM calpain inhibitor II, 50 μM MG132, or 10 μM β-lactone. Cells were then pulse labelled with 250 uCi/plate of ^35S-methionine/cysteine for 15 minutes, and either harvested immediately or followed by a 2 hour chase with excess unlabelled methionine and cysteine. Cells were then lysed with SDS/Tris, and proteins were immunoprecipitated with anti-p50 antibodies (recognize the N-terminal half of the p105 protein). These proteins were then separated on a 10% SDS-polyacrylamide gel, which was then fixed, dried, and exposed to autoradiographic film.
# PC12 cells = details: Tsubuki et al. 1993; cited from earlier work
# IκB-α = test: TNF-α dependent degradation of IκB-α in Hela cells (immunoblot); format: cell-based, human; details: 40 μM, 1 h pretreatment, 1,000 U/ml TNF-α
# Method: Hela cells were plated onto 6-well plates in DME plus 10% fetal calf serum (3 mls/well). Cells were then pretreated with 0.125% DMSO 40 μM […] (carbobenzoxyl-leucinyl-leucinyl-leucinal-H)(40 μM, lanes 103), or 5 μM β-lactone for one hour, followed by treatment with 1,000 U/ml TNF-α or phosphate buffered saline (PBS). Cells were harvested after 0 min, 20 min, or 40 min of further incubation at 37° C. Cells were then lysed in buffer containing NP-40 and protease inhibitors, and the proteins separated on a 10% SDS-polyacrylamide gel. The proteins were then transferred to nitrocellulose and probed with antibodies against the C-terminal 20 amino acids of human IκB-α.
# [1] = target: T1, 20S proteasome chymotrypsin-like activity (Bos taurus, UniProt Q32KL2); test: Kinetics of inhibition of 20S proteasome chymotrypsin-like activity (Suc-LLVY-AMC); format: biochemical, bovine; details: for κassoc = κobs/[I], Chymotrypsin-like activity (Suc-LLVY-AMC): 25° C.
# T1 construct: from tissue; host or cells: bovine brain
# Method: (§1) Experiments involving the proteasome were performed as follows: 20S proteasome (˜5 ng/μl) in 10 mM Tris-HCl, pH 7.5, 1 mM EDTA was incubated at 25° C. in the presence of lactacystin or lactacystin analogs in DMSO or MeOH [not exceeding 5% (v/v)]. Aliquots for fluorescence assay were removed at various times following addition of compound and diluted in 10 mM Tris-HCl, pH 7.5, 1 mM EDTA containing fluorogenic peptide substrates (100 μM final). Suc-LLVY-AMC, Cbz-GGR-βNA and […] (AMC=7-amido-4-methylcoumarin; βNA=β-naphthylamide) were used to assay for the chymotrypsin-like, trypsin-like and peptidylglutamyl-peptide hydrolyzing activities, respectively.
# (§2) Fluorescent emission at 460 nm with excitation at 380 nm was measured for AMC-containing substrates, and emission at 410 nm with excitation at 335 nm was measured for βNA-containing substrates. The fluorescence assays were conducted at 25° C., each experiment was performed at least three times, and values represent mean±standard deviation.
# (§3) The reversibility of the inhibitory effects was assessed by measuring residual peptidase activity after removal of excess inhibitor by extensive serial dilution/ultrafiltration.
# Calpain II = target: T2, Calpain II (Homo sapiens, UniProt P17655); test: Selectivity of protease inhibition: calpain II; format: biochemical
# T2 sequence (P17655 1-700): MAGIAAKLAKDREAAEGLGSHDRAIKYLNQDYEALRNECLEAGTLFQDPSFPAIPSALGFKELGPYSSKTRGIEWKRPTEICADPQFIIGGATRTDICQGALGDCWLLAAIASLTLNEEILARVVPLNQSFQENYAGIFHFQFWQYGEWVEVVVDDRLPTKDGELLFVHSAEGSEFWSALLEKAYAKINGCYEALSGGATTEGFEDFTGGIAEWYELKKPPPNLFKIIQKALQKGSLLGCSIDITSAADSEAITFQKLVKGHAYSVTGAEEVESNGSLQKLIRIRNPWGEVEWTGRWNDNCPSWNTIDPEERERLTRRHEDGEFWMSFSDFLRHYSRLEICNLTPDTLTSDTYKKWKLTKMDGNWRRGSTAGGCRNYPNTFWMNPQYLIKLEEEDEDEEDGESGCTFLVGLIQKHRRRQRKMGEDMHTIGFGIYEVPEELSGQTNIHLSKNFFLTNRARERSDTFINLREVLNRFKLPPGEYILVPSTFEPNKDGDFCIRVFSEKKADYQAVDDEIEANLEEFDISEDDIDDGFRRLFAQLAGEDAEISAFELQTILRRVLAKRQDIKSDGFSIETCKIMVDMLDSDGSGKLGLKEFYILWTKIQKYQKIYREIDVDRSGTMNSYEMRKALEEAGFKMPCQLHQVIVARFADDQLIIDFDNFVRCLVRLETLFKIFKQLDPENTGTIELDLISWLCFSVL
# T2 sequence (P04632 1-268 partner): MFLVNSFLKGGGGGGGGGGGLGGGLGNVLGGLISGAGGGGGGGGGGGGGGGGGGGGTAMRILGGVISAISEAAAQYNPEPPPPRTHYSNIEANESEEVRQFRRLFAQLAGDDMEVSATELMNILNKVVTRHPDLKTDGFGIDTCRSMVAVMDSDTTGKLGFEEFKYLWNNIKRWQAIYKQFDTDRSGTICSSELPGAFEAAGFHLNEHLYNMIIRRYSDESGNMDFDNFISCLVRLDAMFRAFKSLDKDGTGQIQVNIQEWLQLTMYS
# Calpain I = target: T3, Calpain I (Homo sapiens, UniProt P07384); test: Selectivity of protease inhibition: calpain I; format: biochemical
# T3 sequence (P07384 1-714): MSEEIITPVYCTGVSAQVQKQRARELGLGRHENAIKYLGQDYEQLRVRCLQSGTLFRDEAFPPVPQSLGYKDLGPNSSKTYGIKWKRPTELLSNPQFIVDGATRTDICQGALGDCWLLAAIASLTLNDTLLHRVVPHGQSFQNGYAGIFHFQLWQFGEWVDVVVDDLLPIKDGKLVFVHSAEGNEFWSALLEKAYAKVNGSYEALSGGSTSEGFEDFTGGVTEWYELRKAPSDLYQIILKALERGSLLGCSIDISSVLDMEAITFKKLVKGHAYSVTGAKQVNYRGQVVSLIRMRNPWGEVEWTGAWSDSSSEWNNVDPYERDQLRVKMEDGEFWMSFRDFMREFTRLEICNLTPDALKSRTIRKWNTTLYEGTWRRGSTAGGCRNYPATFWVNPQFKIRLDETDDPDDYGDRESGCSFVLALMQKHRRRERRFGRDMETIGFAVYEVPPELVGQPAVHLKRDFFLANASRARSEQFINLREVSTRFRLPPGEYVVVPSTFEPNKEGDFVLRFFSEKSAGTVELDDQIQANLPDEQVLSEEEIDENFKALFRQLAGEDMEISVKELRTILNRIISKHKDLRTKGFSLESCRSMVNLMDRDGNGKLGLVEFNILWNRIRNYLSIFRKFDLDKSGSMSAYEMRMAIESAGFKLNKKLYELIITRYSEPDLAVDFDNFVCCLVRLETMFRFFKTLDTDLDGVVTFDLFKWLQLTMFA
# T3 sequence (P04632 1-268 partner): T2 sequence (P04632 1-268 partner)
# [2] = target: 20S proteasome peptidylglutamyl-peptide hydrolyzing activity (Bos taurus, UniProt Q3MHN0)
# Method: as §1, §2, §3
# Trypsin = target: T4, Trypsin (Bos taurus, UniProt P00760); test: Selectivity of protease inhibition: trypsin; format: biochemical
# T4 construct: gene PRSS1
# T4 sequence (P00760 24-246): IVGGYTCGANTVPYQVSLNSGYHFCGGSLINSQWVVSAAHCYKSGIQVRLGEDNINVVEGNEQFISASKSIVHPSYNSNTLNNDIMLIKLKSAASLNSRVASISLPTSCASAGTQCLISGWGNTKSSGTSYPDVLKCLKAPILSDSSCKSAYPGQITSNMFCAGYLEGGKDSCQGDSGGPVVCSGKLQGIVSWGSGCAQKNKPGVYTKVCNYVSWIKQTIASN
# Cathepsin B = Cathepsin B (Homo sapiens, UniProt P07858); test: Selectivity of protease inhibition: cathepsin B; format: biochemical
# α-Chymotrypsin = α-Chymotrypsin (Bos taurus, UniProt P00766, DEL14-15/DEL147-148); test: Selectivity of protease inhibition: α-chymotrypsin; format: biochemical
# [3] = target: T5, 20S proteasome trypsin-like activity (Bos taurus, UniProt Q2TBP0); test: Kinetics of inhibition of 20S proteasome trypsin-like activity (Cbz-GGR-βNA); format: biochemical, bovine
# T5 construct: from tissue; host or cells: bovine brain
# Method: as §1, §2, §3
# Papain = target: T6, Papain (Carica papaya, UniProt P00784); test: Selectivity of protease inhibition: papain; format: biochemical
# T6 sequence (P00784 134-345): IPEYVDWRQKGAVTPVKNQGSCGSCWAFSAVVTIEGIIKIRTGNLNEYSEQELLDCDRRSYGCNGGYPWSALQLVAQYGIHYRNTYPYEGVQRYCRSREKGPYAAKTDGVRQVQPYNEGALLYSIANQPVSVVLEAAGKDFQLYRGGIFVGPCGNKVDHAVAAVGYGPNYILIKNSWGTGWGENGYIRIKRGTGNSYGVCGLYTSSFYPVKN
# 20S proteasome = target: T7, 20S proteasome (Bos taurus, UniProt Q2TBP0+Q32KL2); test: Labeling of 20S proteasome subunits by tritiated compound, reverse-phase HPLC separation; format: binding, bovine
# T7 construct: from tissue; host or cells: bovine brain
# Method: This peak was isolated and treated with 10 μM [^3H]lactacystin or 10 μM [^3H]β-lactone for 24 h at 25° C. Trifluoroacetic acid (TFA) was added to 0.1%, and the sample was allowed to stand at room temperature for 20 min. Reverse-phase HPLC was then carried out at room temperature using a Vydac C4 column (300 Å/4.6×150 mm) with 20-40% acetonitrile/0.1% TFA over 10 min and then 40-55% acetonitrile/0.1% TFA over 30 min (flow rate=0.8 ml/min). An IN/US β-RAM in-line scintillation detector was used to monitor radioactivity.
# [4] = residual activity after removal of excess inhibitor by serial dilution/ultrafiltration
# [5] = relative to kassoc for chymotrypsin-like activity
compound,measurement,setting,value
"CC(C)C[C@@H](C=O)NC(=O)[C@H](CC(C)C)NC(=O)[C@H](CC(C)C)NC(=O)OCc1ccccc1 [MG132, carbobenzoxyl-leucinyl-leucinyl-leucinal-H] (Cbz-Leu-Leu-Leu-aldehyde)",processing of p105 to p50 (appearance of p50),p105 to p50 processing,completely blocks the appearance of p50
same,optimal concentration for inducing neurite outgrowth,PC12 cells,30 nM
same,degradation of IκB after TNF induction,IκB-α,blocks the degradation
same,phosphorylated form of IκB,IκB-α,stabilizes the phosphorylated form
"CC(=O)NC(CSC(=O)C1(C(O)C(C)C)NC(=O)C(C)C1O)C(=O)O [(6R,7S)Lactacystin (6-epi,7-epi), (6R,7S)-lactacystin]","κassoc = κobs/[I], Chymotrypsin-like activity (Suc-LLVY-AMC)",[1]; compound 12.5 μM,No inhibition
6-deoxylactacystin,"κassoc = κobs/[I], Chymotrypsin-like activity (Suc-LLVY-AMC)",[1]; compound 12.5 μM,No inhibition
"CC(=O)N[C@@H](CSC(=O)[C@]1([C@@H](O)C(C)C)NC(=O)[C@H](C)[C@@H]1O)C(=O)O [Lactacystin, lactacystin]",Effect of lactacystin (100 μM) on Calpain II,"Calpain II; 100 μM, Suc-LLVY-AMC, 25° C.",No inhibition
same,inhibition of calpain II activity,Calpain II; concentration not given,do not inhibit
same,"κassoc = κobs/[I], Chymotrypsin-like activity (Suc-LLVY-AMC)",[1]; compound 10 μM,194 ± 15 s^−1M^−1
same,kinact/KI,"[1]; read-out: kassoc, apparent second-order rate constant for association, chymotrypsin-like activity",194 ± 15 M⁻¹ s⁻¹
same,reversibility of inhibition of chymotrypsin-like activity,[1]; [4],irreversibly; also recorded: still completely inhibited
same,Effect of lactacystin (100 μM) on Calpain I,"Calpain I; 100 μM, Suc-LLVY-AMC, 25° C.",No inhibition
same,inhibition of calpain I activity,Calpain I; concentration not given,do not inhibit
same,"κassoc = κobs/[I], Peptidylglutamyl-peptide hydrolyzing activity (Cbz-LLE-βNA)","[2]; compound 100 μM, 25° C.",4.2 ± 0.6 s^−1M^−1
same,PGPH activity inhibited more slowly than chymotrypsin-like activity,[2]; [5],50 fold
same,reversibility of inhibition of PGPH activity,[2]; [4],reversibly; also recorded: return of the catalytic activity
same,Effect of lactacystin (100 μM) on Trypsin,"Trypsin; 100 μM, Cbz-GGR-βNA, 25° C.",No inhibition
same,inhibition of trypsin activity,Trypsin; concentration not given,do not inhibit
same,Effect of lactacystin (100 μM) on Cathepsin B,"Cathepsin B; 100 μM, Cbz-RR-AMC, 25° C.",No inhibition
same,inhibition of cathepsin activity,Cathepsin B; concentration not given,do not inhibit
same,Effect of lactacystin (100 μM) on α-Chymotrypsin,"α-Chymotrypsin; 100 μM, Suc-LLVY-AMC, 25° C.",No inhibition
same,inhibition of α-chymotrypsin activity,α-Chymotrypsin; concentration not given,do not inhibit
same,"κassoc = κobs/[I], Trypsin-like activity (Cbz-GGR-βNA)","[3]; compound 10 μM, 25° C.",10.1 ± 1.8 s^−1M^−1
same,trypsin-like activity inhibited more slowly than chymotrypsin-like activity,[3]; [5],20 fold
same,reversibility of inhibition of trypsin-like activity,[3]; [4],irreversibly; also recorded: still completely inhibited
same,Effect of lactacystin (100 μM) on Papain,"Papain; 100 μM, Cbz-RR-AMC, 25° C.",No inhibition
same,inhibition of papain activity,Papain; concentration not given,do not inhibit
CSCC[C@@H](C=O)NC(=O)[C@H](CC(C)C)NC(=O)[C@H](CC(C)C)NC(C)=O [calpain inhibitor II] (Ac-Leu-Leu-Met-aldehyde),processing of p105 to p50 (appearance of p50),p105 to p50 processing,no effect
CC(=O)N[C@@H](CSC(=O)[C@]1([C@@H](O)C(C)C)NC(=O)[C@H](C)[C@@H]1O)C(=O)O [[^3H]lactacystin],association of radioactivity with HPLC-separated proteasome subunit peaks,"20S proteasome; 10 μM, 24 h at 25° C., first peak ~32 kDa (α chain), second peak ~24 kDa (X/MB1)",exclusively with the first two peaks
same,labeling of the first peak (~32 kDa protein),20S proteasome; 24 hour reaction,significant labeling

# Source: patent US6838477B2, “Lactacystin analogs” (President and Fellows of Harvard College, priority 1995, dated 2005)
